Assay results reported in patent US8877809B2, “Compositions and methods for treating macular degeneration” (The Trustees of Columbia University in the City of New York, priority 2007, dated 2014).
“Also recorded” adds a separate entry of the source. Read-outs that look alike come from different tables or passages of the source.

Assays:
ABCR knockout mice = conditions: cited from earlier work
[1] = mouse, in vivo; cited from earlier work
users = conditions: cited from earlier work
CD IGS rats = experiment: A2E-lipofuscin in wild-type CD IGS rats after 8 weeks of IP retinal dosing, HPLC; assay type: in vivo; conditions: for Total A2E-lipofuscin versus retinal group (FIG. 7A, in words): C20-D3-retinal alone, Fenretinide or TDH given with retinal; for Less A2E-lipofuscin compared to animals administered only all-trans-retinal: all-trans-retinal 3 mg IP for 8 weeks plus drug at roughly 1.5 mg/day/animal in drinking water
Method: Animals treated with retinal had the greatest amount of A2E-lipofuscin (normalized to 100%).
45-50 day old, female, CD IGS rats (Charles River, Wilmington, Mass.) were divided up into four groups of three. Three of these groups were administered all-trans-retinal and the one group was given C20-D3-all-trans-retinal (IP injection in a 10% solution of Tween-20 in saline) at 3 mg, bi- or tri-weekly for 8 weeks (20, 3 mg injections total). Thus, at the end of the 8-week period the animals received roughly 20 times their original stores of vitamin A, as retinal or C20-D3-all-trans-retinal. Massive dosing with C20-D3-all-trans-retinal quickly replaces normal vitamin A stores with the C20-D3-analog. Of the three groups administered all-trans-retinal, one group was given Fenretinide (50) and another TDH (23), at doses of roughly 1.5 mg/day/animal (both supplied in the drinking water emulsified with 1 g/L of Nu-rice (RIBUS, Inc, St. Louis, Mo.)).
At the end of the 8 weeks, RPE, A2E-lipofuscin was evaluated in each of the four groups by HPLC as described in Example 3 and in FIG. 7. A2E-lipofuscin pigments were greatest in the animals receiving all-trans-retinal (the control group).

patients [2] = conditions: oral 600 or 900 mg/m2 bid in 6-week cycles, cited from earlier work
patients [3] = conditions: 200 mg/day for five years, 1,432 patients; cited from earlier work
ABCR−/− mice [4] = experiment: Extractable lipofuscin pigments in eyecups of ABCR-/- mice raised exclusively on the diet, HPLC; assay type: in vivo; conditions: 5.5-6 month old mice raised only on the diet, offspring of mothers on the same diet
Method: On the other hand, lipofuscin pigments were undetectable in mice raised on the C20-D3-all-trans-retinol acetate diet.
As in Example 4, two groups of four ABCR^−/− mice where raised either on diets containing C20-D3-all-trans-retinol acetate or all-trans-retinol acetate. However, in this example the mice were offspring of mothers on the same diet, and thus where raised only on their respective vitamin A analogs. At 5.5-6 months of age the mice were sacrificed and the eyecups were analyzed for lipofuscin pigments as described in Example 4. The results are shown FIG. 5.

[5] = In vitro A2E formation from retinal, ethanolamine and acetic acid, followed by HPLC; conditions: mass spectrometry of the reaction mixture after 50 hours
CD-1 (ICR) mice = experiment: A2E-lipofuscin in eyes of CD-1 (ICR) mice after IP retinal dosing, HPLC; assay type: in vivo; conditions: 1.5 mg IP bi-weekly for 6 weeks; HPLC at 445 nm
Method: C20-D3-all-trans-retinal was administered to mice in order to measure its ability to form A2E in the eye compared to all-trans-retinal. […], 8-week old, CD-1 (ICR) mice (from Charles River, Wilmington, Mass.) were divided up into two groups of five and administered 1.5 mg of ether all-trans-retinal or C20-D3-all-trans-retinal by intraperitoneal injection (IP) injection in a 10% solution of Tween-20 in saline bi-weekly for 6 weeks. At the end of this six-week period, each mouse was given a total of 60,000 I.U.(18 mg) or about 28-times the original amount of vitamin A in the mouse's body. Massive dosing with C20-D3-all-trans-retinal quickly replaces normal vitamin A stores with the C20-D3-analog. And, the injected retinal rapidly accumulates in the eye (rod outer segments), where at high enough concentrations it will react to form lipofuscin pigments. This is similar to the accumulation of all-trans-retinal in the ABCR^−/− mice and in patents with Stargardt's disease.
At the end of the six week period, the eyes were dissected, the retinas and eyecups pooled into groups of 4 or 5, and homogenated with 50 μL ethanol. The homogenate was centrifuged at 13,000 rpm for 5 minutes and 40 μL of the supernatant was drawn off and analyzed for A2E-lipofuscin by HPLC. Retinol and retinol esters were analyzed at 325 nm and A2E-lipofuscin was measured at 445 nm.

[6] = In vitro A2E formation from C20-fluorinated retinal, monitored by HPLC; conditions: C20 hydrogens replaced by fluorine; disappearance of retinal and absence of fluorinated A2E by HPLC
Text: In the present invention, when the C20 hydrogens of all-trans-retinoids are replaced by fluorine atoms (F3), the formation of A2E is eliminated, as measured by monitoring the disappearance of C20-F3-all-trans-retinal and the absence of the corresponding fluorinated A2E by HPLC. A2E and the ATR-dimer are believed to be formed in vivo by a multi-step reaction sequence involving two molecules of all-trans-retinal, as shown in FIG. 2. In the first step, all-trans-retinal condenses with a biological amine to form the imine. This imine is then thought to undergo a hydrogen shift involving a hydrogen atom at carbon C20 (step 2). Subsequent reaction (step 3) with another molecule of retinal either by 1,2- or 1,4-addition followed by cyclizations (step 4) yields A2E or ATR-dimer precursors, respectively. A2E is subsequently formed after spontaneous oxidation in air, and ATR dimer, after elimination (step 4).
It has been shown that replacing certain C—H bonds with C—F bonds in retinal (i.e., C20-F1-3-retinal) hampers the reactivity of all-trans-retinal, and, thus slows or eliminates the formation of A2E in vitro. By replacing hydrogen atoms at C20 with fluorine, the hydrogen shift step is blocked. Accordingly, C20-F1-3-retinal is expected to appreciably slow A2E and ATR-dimer biosynthesis.

ABCR−/− mice [7] = experiment: Electron microscopy of RPE lipofuscin deposits in ABCR-/- mice raised exclusively on the diet; assay type: in vivo; conditions: 5.5-6 month old mice raised only on the diet
Text: Due to the uncertainty in distinguishing lipofuscin from melanin bodies. Comparisons were made between the numbers of all dark, electron dense bodies found in the RPE between mice on the retinol acetate diet vs. those on the C20-D3-all-trans-retinol acetate diet. In addition to the electron dense lipofuscin and melanin bodies, RPE phagosomes, mitochondria, and lipid droplets are also present but were ultrastructurally distinct.
In order to measure the amount lipofuscin granules in the eyes of the above mice on a normal diet vs. the diet containing C20D3-all-trans-retinol acetate, eyecups from both groups of mice (2 from each group) were evaluated by electron microscopy.

ABCR−/− mice [8] = experiment: A2E-lipofuscin in eyecups of ABCR-/- mice after 3-month diet, HPLC; assay type: in vivo; conditions: diet with 20,000 I.U./kg for 3 months, from 2 months of age; HPLC at 445 nm
Method: C20-D3-all-trans-retinol acetate was prepared according to the literature procedure (47) and was administered to ABCR^−/− mice (48, 49) in order to measure its ability to lead to lipofuscin compared to that of all-trans-retinol acetate. Eight 2-month old, ABCR^−/− mice raised on a standard rodent diet were then fed a diet containing 20,000 I.U./kg of either C20-D3-all-trans-retinol acetate or all-trans-retinol acetate for 3 months.
At the end of the […] period, the eyes were dissected, eyecups pooled into groups of six and homogenated with 80 μL ethanol. The homogenate was centrifuged at 13000 rpm for 5 min and 30 μL of the supernatant was drawn off and analyzed for A2E-lipofuscin by HPLC. A2E-lipofuscin was measured at 445 nm. […] This percentage of A2E reduction is on the same order of magnitude observed in similar studies in ABCR^−/− mice with the visual cycle antagonist TDH, TDT, Ret-NH2, 13-cis-retinoic, acid and fenretinide. However, in this example A2E reduction is achieved with doses of C20-D3-all-trans-retinol acetate that are 11- to 40-times less.

[9] = 2-month-old ABCR knockout mice, 50 mg/kg bi-weekly for two months

For `CC1=C(/C=C/C(C)=C/C=C/C(C)=C\C(=O)O)C(C)(C)CCC1` [13 cis-retinoic acid], the “Lipofuscin formation in the RPE cell layer judged by electron microscopy” value (ABCR knockout mice; 2-month-old ABCR knockout mice, 20 mg/kg/day for two months) is listed as “decrease in lipofuscin formation”, the “Decrease in A2E formation compared to control ABCR knockout mice” value (“Decrease … to control ABCR knockout mice” below) (ABCR knockout mice; 3-month-old ABCR knockout mice, 40 mg/kg/day for one month) is listed as 40-50% and the “Effect on dark adaptation when administered” value (“Effect on dark adaptation” below) [1] is listed as “delayed dark adaptation”. For the same molecule, the “Share of users with back pain, muscle and joint pain, allergic reaction, dizziness, hair loss, dry eyes, decreased night vision, low blood counts and others” value (users; in vivo) was 10-29% and the “Share of users with headache, fever, dry skin, dry mucous membranes, bone pain, nausea and vomiting, rash, mouth sores, itching, sweating, eyesight changes” value (users; larger doses used to treat cancer) was “more than 30%”.

For `CCCCCCCCCCCCCCCCNC/C=C(\C)CC/C=C(\C)CCC=C(C)C` [TDH, (2E,6E)-N-hexadecyl-3,7,11-trimethyldodeca-2,6,10-trienamine], the “Decrease … to control ABCR knockout mice” value (ABCR knockout mice; [9]) is given as “about 50%”, the “Effect on dark adaptation” value [1] is given as “delayed dark adaptation” and the “Total A2E-lipofuscin versus retinal group (FIG. 7A, in words)” value (CD IGS rats) is given as “less A2E-lipofuscin”. The “Less A2E-lipofuscin compared to animals administered only all-trans-retinal” value (CD IGS rats) was 31%.

With `CC1=C(/C=C/C(C)=C/C=C/C(C)=C/C=O)C(C)(C)CCC1` [all-trans-retinal] the “Total A2E, HPLC peak area at 445 nm, normalized” value (CD IGS rats; FIG. 7A, three female rats per group) was 100%.

In the case of `CC1=C(/C=C/C(C)=C/C=C/C(C)=C/CN)C(C)(C)CCC1` [Ret-NH2, All-trans-retinylamine], the “Decrease in A2E formation compared to control ABCA4 knockout mice” value (ABCR knockout mice; 1-month-old ABCA4 knockout mice, 40 mg/kg bi-weekly for two months) is given as “about 50%” and the “Effect on dark adaptation” value [1] is given as “severe delayed dark adaptation”.

In the case of `CC1=C(/C=C/C(C)=C/C=C/C(C)=C/C(=O)Nc2ccc(O)cc2)C(C)(C)CCC1` [Fenretinide, N-(4-hydroxyphenyl)retinamide], the “Decrease in A2E formation compared to control ABCA4 knockout mice” value (ABCR knockout mice; 2-month-old ABCA4 knockout mice, 20 mg/kg/day for one month) is listed as 40-50%, the “Effect on dark adaptation” value [1] is listed as “delayed dark adaptation” and the “Total A2E-lipofuscin versus retinal group (FIG. 7A, in words)” value (CD IGS rats) is listed as “less A2E-lipofuscin”. For the same molecule, the “Less A2E-lipofuscin compared to animals administered only all-trans-retinal” value (CD IGS rats) was 49%, the “Patients with mild to moderate adverse effects possibly linked to the drug” value (patients [2]; 45 patients) was 95% and the “Grade 2 toxicities reported as possibly linked to treatment” value (patients [2]) was “seizures and confusion”. For the same molecule, the “Dermatologic disorders, incidence” value (patients [3]) was 16%, the “Diminished dark adaptation, cumulative incidence” value (patients [3]) was 16% and the “Disorders of the ocular surface, incidence” value (patients [3]) was 8%. The “Gastrointestinal symptoms, incidence” value (patients [3]) was 8%.

With all-trans-retinol acetate the “Lipofuscin pigments extracted from eyecups (HPLC)” value (shortened to “Lipofuscin pigments extracted”) (ABCR−/− mice [4]) was “detectable” and the “Lipofuscin pigments extracted” value (ABCR−/− mice [4]; listed as retinol acetate) was “considerable accumulation of lipofuscin pigments”.

With `[2H]C([2H])([2H])C(/C=C/C=C(C)/C=C/C1=C(C)CCCC1(C)C)=C\C=O` [C20-D3-all-trans-retinal] the “Less A2E-lipofuscin than animals receiving all-trans-retinal” value (CD IGS rats; 3 mg IP bi- or tri-weekly for 8 weeks, given instead of all-trans-retinal) was 35%, the “Total A2E-lipofuscin versus retinal group (FIG. 7A, in words)” value (CD IGS rats) was “less A2E-lipofuscin” and the “Hydrogen deuterium exchange during the reaction” value [5] was “not observed”. For the same molecule, the “Less A2E-lipofuscin compared to mice administered all-trans-retinal” value (CD-1 (ICR) mice) was 68%.

For `CC(C=CC1=C(C)CCCC1(C)C)=CC=CC(=CC=O)C(F)(F)F` [C20-F3-all-trans-retinal], the “Formation of A2E” value [6] was “eliminated”.

For `CCCCCCCCCCC(=O)/C=C(\C)CC/C=C(\C)CCC=C(C)C` [TDT, (12E,16E)-13,17,21-trimethyldocosa-12,16,20-trien-11-one], the “Decrease … to control ABCR knockout mice” value (ABCR knockout mice; [9]) is given as 50-85% and the “Effect on dark adaptation” value [1] is given as “delayed dark adaptation”.

For `[2H]C([2H])([2H])C(/C=C/C=C(C)/C=C/C1=C(C)CCCC1(C)C)=C\COC(C)=O` [C20-D3-all-trans-retinol acetate], the “Electron dense (lipofuscin) bodies in the RPE versus retinol acetate diet” value (ABCR−/− mice [7]) was “less electron dense lipofuscin deposits; also recorded: considerably less electron dense bodies”, the “Lipofuscin pigments extracted” value (ABCR−/− mice [4]) was “undetectable” and the “Less A2E-lipofuscin compared to mice on a diet of all-trans-retinol acetate” value (ABCR−/− mice [8]) was 44-58%.
